Test results published in patent US20050256131A1, “Pharmaceutical active substance combination and the use thereof” (priority 2002, published 2005).
“Also recorded” adds a separate entry of the source.

Assays:
Parkinson's disease = assay: clinical studies / series of tests on parkinsonian patients; assay type: in vivo, human; conditions: for antidepressant effect in parkinsonian patients: especially those treated in parallel with dopamine-containing medicaments; for necessary dose of dopamine to be taken: parkinsonian patients taking dopamine as supplement; for depot effect / release of the additionally taken dopamine in the patient's body: patients taking dopamine at the same time; for influence of additional intake on the effect of nefazodone or trazodone: taken in addition to nefazodone or trazodone
Experimental: The tablets normally comprise the active substance in an amount of 100 mg or 200 mg. […] For example, if a total dose of 500 mg a day is intended, it is possible to take 200 mg in the morning, 200 mg at midday and 100 mg in the evening.
The medicament with the active substance trazodone was administered to the patients in the evening. […] However, to date, for the aforementioned reasons, the patients have been given the dopamine to be administered in the evening in conjunction with a depot composition.

[1] = cited from earlier work; for side effects affecting the nervous system / psychomotor performance: manufacturer's information for use or statements in the literature

| SMILES | antidepressant effect in parkinsonian patients (Parkinson's disease) | therapeutic effect in the treatment of the symptoms of Parkinson's disease (Parkinson's disease; parkinsonian patients) | necessary dose of dopamine to be taken (Parkinson's disease) | depot effect / release of the additionally taken dopamine in the patient's body (Parkinson's disease) | side effects affecting the nervous system / psychomotor performance [1] | influence of additional intake on the effect of nefazodone or trazodone (Parkinson's disease; parkinsonian patients) | further results |
| --- | --- | --- | --- | --- | --- | --- | --- |
| CCc1nn(CCCN2CCN(c3cccc(Cl)c3)CC2)c(=O)n1CCOc1ccccc1 [nefazodone, 2-[3-[4-(3-chlorophenyl)-1-piperazinyl]propyl]-5-ethyl-4-(2-phenoxyethyl)-2H-1,2,4-triazol-3(4H)-one] | particularly evident | exceptionally good therapeutic effect | reduction in the necessary dose of dopamine | released more slowly | impairments of the coordination of movements (ataxia) and slowing of movements |  | tolerability (Parkinson's disease; human, in vivo): generally well tolerated; daily dopamine dose as fraction of dose before treatment (Parkinson's disease; one patient with disease in advanced stage): about one third; dopamine dose necessary on additional intake, relative to dose previously necessary on treatment with dopamine alone (Parkinson's disease; parkinsonian patients regularly taking L-dopamine, simultaneous intake of nefazodone): one half or even one third; side effect of dopamine: uncontrolled motor activity in the patient (Parkinson's disease; patients on Parkinson's medicaments comprising dopamine): positively influenced |
| O=c1n(CCCN2CCN(c3cccc(Cl)c3)CC2)nc2ccccn12 [trazodone, 2-[3-[4-(3-chlorophenyl)-1-piperazinyl]propyl]-1,2,4-triazolo[4,3-a]pyridin-3(2H)-one] | particularly evident | exceptionally good therapeutic effect | reduction in the necessary dose of dopamine | causes a depot effect |  |  | tiredness / sleep-promoting effect after intake (Parkinson's disease; parkinsonian patients): causes a certain tiredness; also recorded: sleep-promoting effect |
| O=C(O)COCCN1CCN(C(c2ccccc2)c2ccc(Cl)cc2)CC1 (centres unmarked) [cetirizine] |  | particularly good effect |  |  | reduction in psychomotor performance | enhances the effect of the nefazodone or trazodone | central sedative effect ([1]; compared with other antihistamines, statements in the literature): only a slight central sedative effect |
| Cn1c(=O)c2c(ncn2C)n(C)c1=O [caffeine] |  |  |  |  |  | assists the mentioned positive effect of nefazodone |  |
| CC(=O)Oc1ccccc1C(=O)O [acetylsalicylic acid] |  |  |  |  |  | can also assist the mentioned positive effects of nefazodone |  |
